Data taken from ChEMBL document CHEMBL1150788, “In vitro susceptibility of Sporothrix schenckii to six antifungal agents determined using three different methods” (2007).
≈ marks a conversion by molar mass, not a printed value.

How the values were obtained:
Assay type in all cases: functional
Sporothrix schenckii [1] = experiment: Antifungal activity against Sporothrix schenckii P25013 isolate from cutaneous-lymphatic sporotrichosis patient after 72 hrs by ATB Fungus 2 method
Sporothrix schenckii [2] = experiment: Antifungal activity against Sporothrix schenckii MRSS4 isolate from cutaneous-lymphatic sporotrichosis patient after 72 hrs by modified NCCLS M38-A method
Pichia kudriavzevii [3] = experiment: Antifungal activity against Candida krusei ATCC 6258 […] after 72 hrs by ATB Fungus 2 method; conditions: ATCC 6258, 72 h
Sporothrix schenckii [4] = experiment: Antifungal activity against Sporothrix schenckii PJRC002 isolate from cutaneous-lymphatic sporotrichosis patient after 72 hrs by modified NCCLS M38-A method
Sporothrix schenckii [5] = experiment: Antifungal activity against Sporothrix schenckii P26187 isolate from cutaneous-lymphatic sporotrichosis patient after 72 hrs by modified NCCLS M38-A method
Sporothrix schenckii [6] = experiment: Antifungal activity against Sporothrix schenckii PSCC1 isolate from cutaneous-lymphatic sporotrichosis patient after 72 hrs by modified NCCLS M38-A method
Sporothrix schenckii [7] = experiment: Antifungal activity against Sporothrix schenckii PGAC0016 isolate from cutaneous-lymphatic sporotrichosis patient after 72 hrs by Sensititre YeastOne method
Sporothrix schenckii [8] = experiment: Antifungal activity against Sporothrix schenckii P26187 isolate from cutaneous-lymphatic sporotrichosis patient after 72 hrs by ATB Fungus 2 method
Sporothrix schenckii [9] = experiment: Antifungal activity against Sporothrix schenckii P14954 isolate from cutaneous-lymphatic sporotrichosis patient after 72 hrs by modified NCCLS M38-A method
Candida parapsilosis = experiment: Antifungal activity against Candida parapsilosis ATCC 22019 […] after 72 hrs by modified NCCLS M38-A method; conditions: Lodderomyces parapsilosis, ATCC 22019, 72 h
Sporothrix schenckii [10] = experiment: Antifungal activity against Sporothrix schenckii P3287 isolate from cutaneous-lymphatic sporotrichosis patient after 72 hrs by ATB Fungus 2 method
Sporothrix schenckii [11] = experiment: Antifungal activity against Sporothrix schenckii P30019 isolate from cutaneous-lymphatic sporotrichosis patient after 72 hrs by ATB Fungus 2 method
Sporothrix schenckii [12] = experiment: Antifungal activity against Sporothrix schenckii P25013 isolate from cutaneous-lymphatic sporotrichosis patient after 72 hrs by Sensititre YeastOne method
Sporothrix schenckii [13] = experiment: Antifungal activity against Sporothrix schenckii PJRC002 isolate from cutaneous-lymphatic sporotrichosis patient after 72 hrs by Sensititre YeastOne method
Sporothrix schenckii [14] = experiment: Antifungal activity against Sporothrix schenckii P10012 isolate from cutaneous-lymphatic sporotrichosis patient after 72 hrs by ATB Fungus 2 method
Sporothrix schenckii [15] = experiment: Antifungal activity against Sporothrix schenckii SSA29 isolate from cutaneous-lymphatic sporotrichosis patient after 72 hrs by ATB Fungus 2 method
Sporothrix schenckii [16] = experiment: Antifungal activity against Sporothrix schenckii P0019 isolate from cutaneous-lymphatic sporotrichosis patient after 72 hrs by Sensititre YeastOne method
Sporothrix schenckii [17] = experiment: Antifungal activity against Sporothrix schenckii SSA29 isolate from cutaneous-lymphatic sporotrichosis patient after 72 hrs by Sensititre YeastOne method
Sporothrix schenckii [18] = experiment: Antifungal activity against Sporothrix schenckii MRSS4 isolate from cutaneous-lymphatic sporotrichosis patient after 72 hrs by Sensititre YeastOne method
Sporothrix schenckii [19] = experiment: Antifungal activity against Sporothrix schenckii P3287 isolate from cutaneous-lymphatic sporotrichosis patient after 72 hrs by modified NCCLS M38-A method
Sporothrix schenckii [20] = experiment: Antifungal activity against Sporothrix schenckii P10012 isolate from cutaneous-lymphatic sporotrichosis patient after 72 hrs by Sensititre YeastOne method
Sporothrix schenckii [21] = experiment: Antifungal activity against Sporothrix schenckii P1621 isolate from cutaneous-lymphatic sporotrichosis patient after 72 hrs by Sensititre YeastOne method
Sporothrix schenckii [22] = experiment: Antifungal activity against Sporothrix schenckii P3287 isolate from cutaneous-lymphatic sporotrichosis patient after 72 hrs by Sensititre YeastOne method
Sporothrix schenckii [23] = experiment: Antifungal activity against Sporothrix schenckii PGAC0016 isolate from cutaneous-lymphatic sporotrichosis patient after 72 hrs by ATB Fungus 2 method
Sporothrix schenckii [24] = experiment: Antifungal activity against Sporothrix schenckii P20825 isolate from cutaneous-lymphatic sporotrichosis patient after 72 hrs by modified NCCLS M38-A method
Sporothrix schenckii [25] = experiment: Antifungal activity against Sporothrix schenckii PSSA81 isolate from cutaneous-lymphatic sporotrichosis patient after 72 hrs by modified NCCLS M38-A method
Sporothrix schenckii [26] = experiment: Antifungal activity against Sporothrix schenckii P0019 isolate from cutaneous-lymphatic sporotrichosis patient after 72 hrs by modified NCCLS M38-A method
Sporothrix schenckii [27] = experiment: Antifungal activity against Sporothrix schenckii PSSA81 isolate from cutaneous-lymphatic sporotrichosis patient after 72 hrs by ATB Fungus 2 method
Sporothrix schenckii [28] = experiment: Antifungal activity against Sporothrix schenckii P14036 isolate from cutaneous-lymphatic sporotrichosis patient after 72 hrs by modified NCCLS M38-A method
Sporothrix schenckii [29] = experiment: Antifungal activity against Sporothrix schenckii isolate from cutaneous-lymphatic sporotrichosis patient after 72 hrs by ATB Fungus 2 method
Sporothrix schenckii [30] = experiment: Antifungal activity against Sporothrix schenckii P10012 isolate from cutaneous-lymphatic sporotrichosis patient after 72 hrs by modified NCCLS M38-A method
Sporothrix schenckii [31] = experiment: Antifungal activity against Sporothrix schenckii P25013 isolate from cutaneous-lymphatic sporotrichosis patient after 72 hrs by modified NCCLS M38-A method
Pichia kudriavzevii [32] = experiment: Antifungal activity against Candida krusei ATCC 6258 […] after 72 hrs by Sensititre YeastOne method; conditions: ATCC 6258, 72 h
Sporothrix schenckii [33] = experiment: Antifungal activity against Sporothrix schenckii PJRC002 isolate from cutaneous-lymphatic sporotrichosis patient after 72 hrs by ATB Fungus 2 method
Sporothrix schenckii [34] = experiment: Antifungal activity against Sporothrix schenckii P24255 isolate from cutaneous-lymphatic sporotrichosis patient after 72 hrs by modified NCCLS M38-A method
Sporothrix schenckii [35] = experiment: Antifungal activity against Sporothrix schenckii P30915 isolate from cutaneous-lymphatic sporotrichosis patient after 72 hrs by ATB Fungus 2 method
Sporothrix schenckii [36] = experiment: Antifungal activity against Sporothrix schenckii P24255 isolate from cutaneous-lymphatic sporotrichosis patient after 72 hrs by ATB Fungus 2 method
Sporothrix schenckii [37] = experiment: Antifungal activity against Sporothrix schenckii P20825 isolate from cutaneous-lymphatic sporotrichosis patient after 72 hrs by Sensititre YeastOne method
Sporothrix schenckii [38] = experiment: Antifungal activity against Sporothrix schenckii P30915 isolate from cutaneous-lymphatic sporotrichosis patient after 72 hrs by Sensititre YeastOne method
Sporothrix schenckii [39] = experiment: Antifungal activity against Sporothrix schenckii P1621 isolate from cutaneous-lymphatic sporotrichosis patient after 72 hrs by ATB Fungus 2 method
Sporothrix schenckii [40] = experiment: Antifungal activity against Sporothrix schenckii P30915 isolate from cutaneous-lymphatic sporotrichosis patient after 72 hrs by modified NCCLS M38-A method
Sporothrix schenckii [41] = experiment: Antifungal activity against Sporothrix schenckii P30019 isolate from cutaneous-lymphatic sporotrichosis patient after 72 hrs by modified NCCLS M38-A method
Sporothrix schenckii [42] = experiment: Antifungal activity against Sporothrix schenckii PSCC1 isolate from cutaneous-lymphatic sporotrichosis patient after 72 hrs by ATB Fungus 2 method
Sporothrix schenckii [43] = experiment: Antifungal activity against Sporothrix schenckii P0019 isolate from cutaneous-lymphatic sporotrichosis patient after 72 hrs by ATB Fungus 2 method
Sporothrix schenckii [44] = experiment: Antifungal activity against Sporothrix schenckii PSSA81 isolate from cutaneous-lymphatic sporotrichosis patient after 72 hrs by Sensititre YeastOne method

## C[C@@H]1[C@H](O)[C@@H](C)/C=C/C=C/C=C/C=C/C=C/C=C/C=C/[C@H](O[C@@H]2O[C@H](C)[C@@H](O)[C@H](N)[C@@H]2O)C[C@@H]2O[C@](O)(C[C@@H](O)C[C@@H](O)[C@H](O)CC[C@@H](O)C[C@@H](O)CC(=O)O[C@H]1C)C[C@H](O)[C@H]2C(=O)O [AMPHOTERICIN B]
Sporothrix schenckii [1]
  MIC: 1 µg/mL (≈ 1.08 µM)
Sporothrix schenckii [2]
  MIC: 0.06 µg/mL (≈ 0.0649 µM)
Pichia kudriavzevii [3]
  MIC: ≤ 0.5 µg/mL
Sporothrix schenckii [4]
  MIC: 4 µg/mL (≈ 4.33 µM)
Sporothrix schenckii [5]
  MIC: > 16 µg/mL
Sporothrix schenckii [6]
  MIC: 0.25 µg/mL (≈ 0.271 µM)
Sporothrix schenckii [7]
  MIC: 0.125 µg/mL (≈ 0.135 µM)
Sporothrix schenckii [8]
  MIC: 4 µg/mL (≈ 4.33 µM)
Sporothrix schenckii [9]
  MIC: 0.25 µg/mL (≈ 0.271 µM)
Candida parapsilosis
  MIC: 0.5 µg/mL (≈ 0.541 µM)
Sporothrix schenckii [10]
  MIC: 8 µg/mL (≈ 8.66 µM)
Sporothrix schenckii [11]
  MIC: 1 µg/mL (≈ 1.08 µM)
Sporothrix schenckii [12]
  MIC: 1 µg/mL (≈ 1.08 µM)
Sporothrix schenckii [13]
  MIC: 1 µg/mL (≈ 1.08 µM)
Sporothrix schenckii [14]
  MIC: ≤ 0.5 µg/mL
Sporothrix schenckii [15]
  MIC: 2 µg/mL (≈ 2.16 µM)
Sporothrix schenckii [16]
  MIC: 0.25 µg/mL (≈ 0.271 µM)
Sporothrix schenckii [17]
  MIC: 0.06 µg/mL (≈ 0.0649 µM)
Sporothrix schenckii [18]
  MIC: 0.5 µg/mL (≈ 0.541 µM)
Sporothrix schenckii [19]
  MIC: > 16 µg/mL
Sporothrix schenckii [20]
  MIC: 0.25 µg/mL (≈ 0.271 µM)
Sporothrix schenckii [21]
  MIC: 0.5 µg/mL (≈ 0.541 µM)
Sporothrix schenckii [22]
  MIC: 0.5 µg/mL (≈ 0.541 µM)
Sporothrix schenckii [23]
  MIC: ≤ 0.5 µg/mL
Sporothrix schenckii [24]
  MIC: > 16 µg/mL
Sporothrix schenckii [25]
  MIC: 1 µg/mL (≈ 1.08 µM)
Sporothrix schenckii [26]
  MIC: 0.125 µg/mL (≈ 0.135 µM)
Sporothrix schenckii [27]
  MIC: 4 µg/mL (≈ 4.33 µM)
Sporothrix schenckii [28]
  MIC: > 16 µg/mL
Sporothrix schenckii [29]
  MIC50: 1 µg/mL (≈ 1.08 µM)
  MIC90: 4 µg/mL (≈ 4.33 µM)
Sporothrix schenckii [30]
  MIC: 0.06 µg/mL (≈ 0.0649 µM)
Sporothrix schenckii [31]
  MIC: > 16 µg/mL
Pichia kudriavzevii [32]
  MIC: 0.5 µg/mL (≈ 0.541 µM)
Sporothrix schenckii [33]
  MIC: 1 µg/mL (≈ 1.08 µM)
Sporothrix schenckii [34]
  MIC: 2 µg/mL (≈ 2.16 µM)
Sporothrix schenckii [35]
  MIC: ≤ 0.5 µg/mL
Sporothrix schenckii [36]
  MIC: 2 µg/mL (≈ 2.16 µM)
Sporothrix schenckii [37]
  MIC: 1 µg/mL (≈ 1.08 µM)
Sporothrix schenckii [38]
  MIC: 0.5 µg/mL (≈ 0.541 µM)
Sporothrix schenckii [39]
  MIC: ≤ 0.5 µg/mL
Sporothrix schenckii [40]
  MIC: 0.25 µg/mL (≈ 0.271 µM)
Sporothrix schenckii [41]
  MIC: 1 µg/mL (≈ 1.08 µM)
Sporothrix schenckii [42]
  MIC: ≤ 0.5 µg/mL
Sporothrix schenckii [43]
  MIC: ≤ 0.5 µg/mL
Sporothrix schenckii [44]
  MIC: 0.06 µg/mL (≈ 0.0649 µM)
